Where two headings read alike, the source gives them in different places.
Legend:
Assay type in all cases: cell-based
[1] = system: human hippocampal stem cells; assay: Neurogenesis, TuJ1 immunostaining / Hoechst (primary screen); conditions: seven days of compound treatment; for Neuron Number (% of Control): TuJ1+ neurons per area; for Neuron Ratio (% of Control): ratio neuron:total cells (TuJ1/Hoechst)
From the text: FIG. 2 is a bar graph illustrating an example of a neurogenesis profile of compounds selected from primary screening. After seven days of compound treatment, the cells were stained with the neuron-specific anti-tubulin IIIb antibody. TuJ1, for neurons and Hoechst for all cell nuclei. Shown are the relative ratio of neuron: total cells for each compound over the vehicle control in percentage. Typical ratio for vehicle control is 40-50% neurons. The ratio can change by either increased differentiation of stem cells to neurons, decreased proliferation of astrocytes, or increased proliferation of neuronal progenitors.
FIG. 3 is a bar graph illustrating an example of a neurogenesis profile of compounds selected from primary screening. After seven days of compound treatment, the cells were stained with TuJ1 for neurons. The number of TuJ1+ neurons per area was quantified and expressed as a relative value to the vehicle treated control.
The final neuron number is detected by immunostaining of the culture with antibodies against neurons and is quantified by counting of the immunopositive neurons and/or by measuring the staining intensity. Therefore, after seven days of compound treatment, the cells are stained with the neuron-specific anti-tubulin IIIb antibody, TuJ1, for neurons and Hoechst for all cell nuclei. The number of TuJ1+ neurons per area is quantified and expressed as a value relative to the vehicle-treated control of Hoechst-stained cells. In this regard, the medium is removed from the wells by decanting and blotting the plates on paper towels. The cells are then fixed in 100 μl of 4% paraformaldehyde per well for thirty minutes at room temperature. The cells are washed three times with 400 μl per well of phosphate-buffered saline (PBS) at pH 7.5 for approximately ten minutes per wash. The plates are then stored at 4° C. in PBS or used immediately for staining.
The cells are subsequently stained with antibodies against neuron-specific antigens according to standard procedures. The staining process includes decanting the PBS and blocking the cells with 100 μl of 5% Normal Goat Serum (NGS) in PBS for one hour at room temperature. The NGS/PBS is decanted and the plates are blotted on a paper towel. The cells are then permeabilized with 0.1% Triton X-100 in PBS for 30 minutes at room temperature.
Typical neuron-specific antigens include Type III-beta tubulin and MAP-2c. The total cell number in each well was quantified by staining the cultures with a nuclear dye such as DAPI or Hoechst according to standard procedures. Therefore, once the cells are permeabilized, 20 μl of TuJ1, monoclonal antibody against neuronal class 111 β-tubulin (CoVance (BabCo) MMS-435P) and 32 μl of anti-GFAP polyclonal (DAKO Z0334) are added to and mixed of PBS with 5% NGS. Final dilutions of TuJ1 and anti-GFAP are 1:400 and 1:250, respectively. 90 μl of the antibody solution is added to each well except two eleventh column. 90 μl of PBS/5% NGS is added to the eleventh column and no cells are added to the twelfth column. The plate(s) are sealed with parafilm and incubated at 4° C. overnight.
After incubating the cells overnight, the antibody solution is decanted and 200 μl of PBS/0.1% Triton X-100 is added to the wells. The plate(s) are placed on a shaker and incubated at room temperature with gentle shaking for ten minutes. The cells are again washed with the PBS/Triton X-100 solution another two times.
Following staining with TuJ1 and anti-GFAP, 20 μl of Alexa Fluor 488 labeled goat anti-moose IgG (H+L) (Molecular Probes A-11001) and 100 μl of LRSC-IgG, goat anti-rabbit (Jackson Immune 111-295-144) is added and mixed with 10 ml of PBS/5% NGS. 100 μl of the resulting antibody solution is added to each well. The plate(s) are covered with foil and incubated with gentle shaking for up to one hour at room temperature. The cells are again washed as described above with PBS and an Triton X-100. […]

[2] = system: Differentiating hippocampal human stem cells; assay: Long-term treatment in vitro neurogenesis; conditions: for activity at 10 µM: Homo sapiens, 504 h, three weeks, 5× with 10 μM, compared to the control; for Further increase in neuron numbers over long-term treatment: FIG. 11, compared to one week of treatment
Description: FIG. 11 is a bar graph illustrating an example of in vitro neurogenesis profile of the compounds for a long-term treatment. Differentiating hippocampal human stem cells mere treated with vehicle alone or with the test compounds for three weeks. Increase in cell number was determined compared to the control. Shown are several examples that are effective in continued neurogenesis. Bars represent mean+/−SD from six wells.
In another in vitro assay, compounds of the fused imidazole, iminopyrimidine, nicotinamide, aminomethyl phenoxypiperidine and aryloxypiperidine types are evaluated for their effect on the differentiation of the culture-born cells to mature neurons. More particularly, multipotent human hippocampal stem cells are treated in three doses over a one-week period in N2b media and in the presence of an agent of the type mentioned above. The cells are then fed twice weekly for approximately two more weeks in N2b or Neuralbasal+B27 Media (Gibco) and then cells are fixed using 4% paraformaldehyde. Cells are washed 3× with PBS (pH 7.4) and then stained using a nuclear stain (Hoechst or DAPI) and a mature neuronal marker, MAP-2ab (AP-20) antibody. A secondary antibody, Alexa Fluor 488 labeled goat anti-mouse IgG, is used to identify by fluorescent labeling the mature neurons. The fluorescent intensity and number of cells labeled in a multi-plate format can be measured using for instance a Array Scan II (Cellomics) or similar instrumentation.
Effects of the long-term NSI compound treatment on human hippocampal stem cells in the absence of mitogen is illustrated in FIG. 11. In FIG. 11, differentiating hippocampal human stem cells are treated with vehicle alone or with the test compounds for three weeks. Increase in cell number was determined compared to the control. Bars represent mean+/−SD from six wells. […] Several examples of NSI compounds are shown to be effective in continued neurogenesis. […] These agents comprise a class of compounds, aminopyrimidines, that, as shown previously, inhibited apoptosis. Accordingly, the aminopyrimidine class of compounds appear ideally suited for neurodegenerative long-term diseases including Alzheimer's disease and aging. Neurogenic agents that are neuroprotective like the sixteen compounds identified above might also be effective therapeutics for other neurodegenerative diseases in mammals including, but not limited to, stroke, traumatic brain injury, Parkinson's disease, and mild cognitive impairment.

[3] = system: Differentiating human hippocampal stem cells; assay: Neurogenesis dose-response profile; conditions: for activity at 30 µM: @30000 nM; for activity at 1 µM: @1000 nM; for activity at 10 µM: @10000 nM; for activity at 0.3 µM: @300 nM
Description: FIG. 4 is a line graph illustrating an example of a neurogenesis dose-response profile of selected compounds. Differentiating human hippocampal stem cells were treated for seven days with varying concentrations of “primary hits”. Subsequently, the cells were fixed, stained with anti-beta tubulin antibody, and positive cells were quantified by Array Scan II. Shown are the number of neurons after each treatment normalized against the no-compound control.
In another in vitro assay, compounds are tested as above at varying concentrations to obtain a dose-response curve and EC50 values (effective concentration of the compound which produces 50% of the maximum possible response for that compound).
Primary dose-response profiles and secondary functional assays are used to further eliminate compounds from the primary screen based on a lack of dose-dependent effect on neurogenesis, indicated by lack of linearity of dose-response, and in vitro neurotoxicity. The dose-response curve measures neurogenesis over a concentration range of 100 pM to 100 μM. […] Table II contains the summary of EC50 of each compound tested.

[4] = read-out: Long Term Treatment #Neur
[5] = read-out: Long Term Treatment Neur Ratio
[6] = read-out: Long Term Treatment Prolif
[7] = Homo sapiens, Neuron, 168 h, normalized against no-compound control, read-out: Neuron# Eff
[8] = Homo sapiens, Neuron, 168 h, read-out: % Neuron Ratio Eff
[9] = Homo sapiens, Neuron, 168 h, seven days, 100 pM to 100 μM

## O=C(NC1CCN(Cc2ccccc2)CC1)c1cccnc1N1CCNCC1 [NSI-143]
[1]
  Neuron Number (% of Control): 143 ± 6 % of Control
  Neuron Ratio (% of Control): 130 ± 14 % of Control
[2]; [4]
  activity at 10 µM: 102 ± 14%
[2]; [5]
  activity at 10 µM: 103 ± 12%
[2]; [6]
  activity at 10 µM: 153 ± 33%
[3]; [7]
  activity at 30 µM: 115%
[3]; [8]
  activity at 30 µM: 112%
[3]; [9]
  EC50: 4.8 nM

## CCCCNc1c(C2CCN(C(=O)c3ccc(C#N)cc3)CC2)nc2ccccn12 [NSI-149]
[1]
  Neuron Number (% of Control): 113 ± 16 % of Control
  Neuron Ratio (% of Control): 100 ± 6 % of Control
[2]; [4]
  activity at 10 µM: 171 ± 19%
[2]; [5]
  activity at 10 µM: 143 ± 11%
[2]; [6]
  activity at 10 µM: 89 ± 13%
[3]; [7]
  activity at 1 µM: 124%
[3]; [8]
  activity at 1 µM: 111%
[3]; [9]
  EC50: < 0.1 nM

## COc1ccc(CCNc2ncc(C(N)=O)c(NC3CC3)n2)cc1OC [NSI-130]
[1]
  Neuron Number (% of Control): 124 ± 8 % of Control
  Neuron Ratio (% of Control): 128 ± 4 % of Control
[2]
  Further increase in neuron numbers over long-term treatment: effective in stimulating further increases in neuron numbers
[2]; [4]
  activity at 10 µM: 128 ± 30%
[2]; [5]
  activity at 10 µM: 92 ± 12%
[2]; [6]
  activity at 10 µM: 115 ± 11%
[3]; [7]
  activity at 10 µM: 202%
[3]; [8]
  activity at 30 µM: 144%
[3]; [9]
  EC50: 2160 nM

## O=C(c1cccnc1N1CCNCC1)N1CCN(Cc2ccncc2)CC1 [NSI-142]
[1]
  Neuron Number (% of Control): 152 ± 22 % of Control
  Neuron Ratio (% of Control): 125 ± 15 % of Control
[2]; [4]
  activity at 10 µM: 146 ± 34%
[2]; [5]
  activity at 10 µM: 120 ± 21%
[2]; [6]
  activity at 10 µM: 105 ± 26%
[3]; [7]
  activity at 30 µM: 175%
[3]; [8]
  activity at 30 µM: 123%
[3]; [9]
  EC50: 0.001 nM

## CC(C)(C)OC(=O)NCCNC(=O)c1cccnc1NCC1CCCCC1 [NSI-157]
[1]
  Neuron Number (% of Control): 135 ± 15 % of Control
  Neuron Ratio (% of Control): 142 ± 6 % of Control
[2]; [4]
  activity at 10 µM: 139 ± 43%
[2]; [5]
  activity at 10 µM: 107 ± 22%
[2]; [6]
  activity at 10 µM: 146 ± 19%
[3]; [7]
  activity at 10 µM: 113%
[3]; [8]
  activity at 30 µM: 146%
[3]; [9]
  EC50: > 1000 nM

## NC(=O)c1cnc(NCc2ccc(Cl)cc2)nc1NCC1CCCCC1 [NSI-144]
[1]
  Neuron Number (% of Control): 179 ± 29 % of Control
  Neuron Ratio (% of Control): 137 ± 8 % of Control
[2]
  Further increase in neuron numbers over long-term treatment: effective in stimulating further increases in neuron numbers
[2]; [4]
  activity at 10 µM: 170 ± 46%
[2]; [5]
  activity at 10 µM: 123 ± 12%
[2]; [6]
  activity at 10 µM: 97 ± 21%
[3]; [7]
  activity at 0.3 µM: 186%
[3]; [8]
  activity at 0.3 µM: 138%
[3]; [9]
  EC50: 13.5 nM

## O=C(COc1ccccc1)NCc1nc2ccccn2c1NCC1CCCO1 (stereo not drawn) [NSI-183]
[1]
  Neuron Number (% of Control): 128 ± 13 % of Control
  Neuron Ratio (% of Control): 131 ± 4 % of Control
[2]; [4]
  activity at 10 µM: 148 ± 30%
[2]; [5]
  activity at 10 µM: 111 ± 16%
[2]; [6]
  activity at 10 µM: 99 ± 19%
[3]; Homo sapiens, Neuron, 168 h, @1 nM, read-out: % Neuron Ratio Eff
  activity at 0.001 µM: 112%
[3]; [7]
  activity at 0.3 µM: 140%
[3]; [9]
  EC50: 0.05 nM
[3]; seven days, 100 pM to 100 μM
  % Neuron Ratio EC50: No Curve

## CS(=O)(=O)N(CC(=O)NCc1nc2ccccn2c1NCc1ccccc1)c1ccccc1 [NSI-185]
[1]
  Neuron Number (% of Control): 141 ± 70 % of Control
  Neuron Ratio (% of Control): 135 ± 15 % of Control
[2]; [4]
  activity at 10 µM: 155 ± 30%
[2]; [5]
  activity at 10 µM: 105 ± 19%
[2]; [6]
  activity at 10 µM: 83 ± 25%
[3]; Homo sapiens, Neuron, 168 h, @3000 nM, normalized against no-compound control, read-out: Neuron# Eff
  activity at 3 µM: 132%
[3]; [8]
  activity at 30 µM: 112%
[3]; [9]
  EC50: 786 nM

## CCCNc1ncc(C(N)=O)c(NC2CCCC2)n1 [NSI-137]
[1]
  Neuron Number (% of Control): 151 ± 40 % of Control
  Neuron Ratio (% of Control): 116 ± 8 % of Control
[2]; [4]
  activity at 10 µM: 139 ± 35%
[2]; [5]
  activity at 10 µM: 98 ± 18%
[2]; [6]
  activity at 10 µM: 111 ± 10%
[3]; [7]
  activity at 30 µM: 145%
[3]; [8]
  activity at 30 µM: 126%
[3]; [9]
  EC50: > 1000 nM
